# Measurements reported in patent US6916915B1, “Stressor regulated genes” (Duke University, priority 1998, dated 2005).
# Tested on: C. elegans
# Assay: Reverse-Northern dot-blot analysis of steady-state mRNA levels after cadmium exposure
# Type: in vivo, Caenorhabditis elegans
# Details: for Fold-change in mRNA levels following cadmium exposure, DDRT1: clone DDRT1; for Fold-change in mRNA levels following cadmium exposure, DDRT2: clone DDRT2; for Fold-change in mRNA levels following cadmium exposure, DDRT3: clone DDRT3; for Fold-change in mRNA levels following cadmium exposure, DDRT4: clone DDRT4; for Fold-change in mRNA levels following cadmium exposure, DDRT5: clone DDRT5; for Fold-change in mRNA levels following cadmium exposure, DDRT6: clone DDRT6; for Fold-change in mRNA levels following cadmium exposure, DDRT7: clone DDRT7; for Fold-change in mRNA levels following cadmium exposure, DDRT9: clone DDRT9; for Fold-change in mRNA levels following cadmium exposure, DDRT10: clone DDRT10; for Fold-change in mRNA levels following cadmium exposure, DDRT12: clone DDRT12; for Fold-change in mRNA levels following cadmium exposure, DDRT15: clone DDRT15; for Fold-change in mRNA levels following cadmium exposure, DDRT16: clone DDRT16; for Fold-change in mRNA levels following cadmium exposure, DDRT17: clone DDRT17; for Fold-change in mRNA levels following cadmium exposure, DDRT18: clone DDRT18; for Fold-change in mRNA levels following cadmium exposure, DDRT19: clone DDRT19; for Fold-change in mRNA levels following cadmium exposure, DDRT20: clone DDRT20; for Fold-change in mRNA levels following cadmium exposure, DDRT21D: clone DDRT21D; for Fold-change in mRNA levels following cadmium exposure, DDRT21U: clone DDRT21U; for Fold-change in mRNA levels following cadmium exposure, DDRT22: clone DDRT22
# Description: Growth and isolation of C. elegans—The N2 strain of C. elegans was grown in liquid S medium (0.1M NaCl, 50 mM potassium phosphate, pH 6.0, 5 μg/ml cholesterol, 10 mM potassium citrate, 3 mM CaCl2, 3 mM MgCl2, 50 μM EDTA, 25 μM FeSO4, 10 μM MnCl2, 10 μM ZnSO4 and 1 μM CuSO4) using E. coli OP50 as a food source (Brenner, S. (1974) Genetics 77, 71-94). In experiments where nematodes were exposed to cadmium, the medium was supplemented with 100 μM CdCl2 (Freedman, J. H. et al. (1993) J. Biol. Chem. 268, 2554-2564). C. elegans were grown in the presence of metal for 8 h or 24 h at ˜20° C. Nematodes were then collected following centrifugation at 800×g for 5 min. Pellets were suspended in 5 mM NaCl containing 35% sucrose (final concentration) and viable nematodes were collected from the top of the solution following centrifugation at 1000×g for 5 min at 4° C. Nematodes were then washed three times by suspension in M9 buffer (22 mM KH2PO4, 42 mM Na2HPO4, 85 mM NaCl, 1 mM MgSO4) followed by sedimentation at 800×g. Washed nematode pellets were finally suspended in a small volume of M9 buffer, rapidly frozen in liquid nitrogen and stored at −80° C.
# RNA isolation—Total RNA was isolated from mix-stage populations of C. elegans exposed to 100 μM CdCl2 for 8 h and 24 h and control, non-exposed nematodes. Frozen worms were first ground into a fine powder using a liquid nitrogen-cooled mortar and pestle. Powdered C. elegans (200 mg) were then homogenized in 2 ml of TRIzol (GIBCO/BRL). RNA was then collected from the aqueous phase following the addition of chloroform, precipitated by adding isopropyl alcohol and then air-dried. The dried RNA pellet was then dissolved in diethyl pyrocarbonate (DEPC)-treated water. For some experiments, poly(A^+) RNA was subsequently isolated using the Poly(A) Tract System following manufacturer's instructions (Promega).
# Reverse-Northern dot-blot analysis—Changes in the steady-state levels of differentially expressed mRNAs in C. elegans following cadmium-exposure were also determined by reverse-Northern dot-blot analysis by the modified procedure of Zhang et al. (Cummins, C. et al. (1988) Mol. Cell. Biol 8, 5334-5349). Briefly, differentially expressed cDNAs that were previously cloned into pGEM-T were amplified using primers that anneal to the T7 and SP6 RNA polymerase binding sites, which flank the cDNA insert. cDNAs were amplified and subsequently purified using a PCR-spin column (QIAGEN). Approximately 100 ng of each amplified cDNA were denatured by mixing with 0.1N NaOH (final concentration) and incubating at 100° C. for 5 min. The solution was neutralized following the addition of 3×SSC (final concentration) and then the volume adjusted to 700 μl with dH2O. 200-μl of each sample was applied to one of three Nytran membranes in a Bio-Dot microfiltration apparatus (BioRad). Membranes were then baked for 30 min at 80° C. under vacuum. As positive and loading controls 100 ng of mtl-1 cDNA and myosin light chain DNA were also applied to each membrane, respectively.
# Three pools of single-stranded ^32P-labeled cDNA probes were prepared from poly(A^+) RNA isolated from control, 8 h and 24 h cadmium-treated nematodes. cDNAs were generated from a mixture of mRNAs in a 25 μl reverse transcriptase reactions which contained 2 μg poly(A^+) RNA, 1 μg oligo (dT)18 primer, reverse transcriptase buffer, 800 μM DATP, dGTP and dTTP, 4.5 μM dCTP, 100 μCi [α-^32P]dCTP (3000 Ci/mmol), 20 units RNase inhibitor and 200 units Moloney murine leukemia virus reverse transcriptase. The reaction mixture was incubated at 37° C. for 1 h, then at 95° C. for 5 min to terminate the reaction. Unincorporated nucleotides were separated from the labeled cDNAs by using a G-25 spin column (Boehringer Mannheim). Equal amounts (5×10^6 cpm/ml) of each radioactive cDNA mixture were heat-denatured and then hybridized separately to one of the three membranes at 42° C. for 16 h in hybridization buffer. […]
# [1] = cadmium exposure, time not stated
# [2] = 8 hours, 100 μM CdCl2, relative to non-exposed, normalized to myosin light chain mRNA
# [3] = 24 hours, 100 μM CdCl2, relative to non-exposed, normalized to myosin light chain mRNA
compound,measurement,setting,value
"[Cl][Cd][Cl] [cadmium, CdCl2]","increase in level of expression, forty-six of the clones",24-h exposure,up to 6 fold
same,level of expression of myosin light-chain mRNA,"after cadmium treatment, loading control on dot blot",remained constant
same,induction of mtl-1 mRNA,"after cadmium treatment, positive control on dot blot, time not stated",~5 fold
same,increase in the level of mRNA DDRT30 (collagen col-36),[1],3 fold
same,increase in the level of mRNA DDRT33D (predicted cuticle collagen),[1],3 fold
same,"Fold-change in mRNA levels following cadmium exposure, DDRT1",[2],2.2 fold
same,"Fold-change in mRNA levels following cadmium exposure, DDRT1",[3],3.2 fold
same,"Fold-change in mRNA levels following cadmium exposure, DDRT2",[2],3.1 fold
same,"Fold-change in mRNA levels following cadmium exposure, DDRT2",[3],3.9 fold
same,"Fold-change in mRNA levels following cadmium exposure, DDRT3",[2],2.0 fold
same,"Fold-change in mRNA levels following cadmium exposure, DDRT3",[3],2.4 fold
same,"Fold-change in mRNA levels following cadmium exposure, DDRT4",[2],2.5 fold
same,"Fold-change in mRNA levels following cadmium exposure, DDRT4",[3],2.8 fold
same,"Fold-change in mRNA levels following cadmium exposure, DDRT5",[2],3.2 fold
same,"Fold-change in mRNA levels following cadmium exposure, DDRT5",[3],3.9 fold
same,"Fold-change in mRNA levels following cadmium exposure, DDRT6",[2],4.7 fold
same,"Fold-change in mRNA levels following cadmium exposure, DDRT6",[3],5.0 fold
same,"Fold-change in mRNA levels following cadmium exposure, DDRT7",[2],3.6 fold
same,"Fold-change in mRNA levels following cadmium exposure, DDRT7",[3],4.0 fold
same,"Fold-change in mRNA levels following cadmium exposure, DDRT9",[2],3.5 fold
same,"Fold-change in mRNA levels following cadmium exposure, DDRT9",[3],2.8 fold
same,"Fold-change in mRNA levels following cadmium exposure, DDRT10",[2],2.7 fold
same,"Fold-change in mRNA levels following cadmium exposure, DDRT10",[3],2.5 fold
same,"Fold-change in mRNA levels following cadmium exposure, DDRT12",[2],3.0 fold
same,"Fold-change in mRNA levels following cadmium exposure, DDRT12",[3],3.2 fold
same,"Fold-change in mRNA levels following cadmium exposure, DDRT15",[2],2.8 fold
same,"Fold-change in mRNA levels following cadmium exposure, DDRT15",[3],3.1 fold
same,"Fold-change in mRNA levels following cadmium exposure, DDRT16",[2],4.3 fold
same,"Fold-change in mRNA levels following cadmium exposure, DDRT16",[3],4.9 fold
same,"Fold-change in mRNA levels following cadmium exposure, DDRT17",[2],3.7 fold
same,"Fold-change in mRNA levels following cadmium exposure, DDRT17",[3],5.7 fold
same,"Fold-change in mRNA levels following cadmium exposure, DDRT18",[2],2.2 fold
same,"Fold-change in mRNA levels following cadmium exposure, DDRT18",[3],2.9 fold
same,"Fold-change in mRNA levels following cadmium exposure, DDRT19",[2],2.7 fold
same,"Fold-change in mRNA levels following cadmium exposure, DDRT19",[3],3.9 fold
same,"Fold-change in mRNA levels following cadmium exposure, DDRT20",[2],2.6 fold
same,"Fold-change in mRNA levels following cadmium exposure, DDRT20",[3],2.8 fold
same,"Fold-change in mRNA levels following cadmium exposure, DDRT21D",[2],2.2 fold
same,"Fold-change in mRNA levels following cadmium exposure, DDRT21D",[3],4.2 fold
same,"Fold-change in mRNA levels following cadmium exposure, DDRT21U",[2],2.2 fold
same,"Fold-change in mRNA levels following cadmium exposure, DDRT21U",[3],2.6 fold
same,"Fold-change in mRNA levels following cadmium exposure, DDRT22",[2],2.5 fold
same,"Fold-change in mRNA levels following cadmium exposure, DDRT22",[3],3.3 fold
same,"Fold-change in mRNA levels following cadmium exposure, DDRT23","clone DDRT23, 8 hours, 100 μM CdCl2, relative to non-exposed, normalized to myosin light chain mRNA",3.3 fold
